System: patients with refractory metastatic colorectal cancer (mCRC)
Assay: PFS, OS and disease control in the training (evaluation) cohort of refractory mCRC patients receiving TAS-102 (n=52, Japan), by baseline characteristics, SNP genotype and toxicity
Assay type: in vivo, human
Settings: for OS (median) / PFS (median): evaluation cohort (JPN TAS-102); for Disease Control CR/PR/SD, patients n (%) / Median OS (95% CI) / Median PFS (95% CI) / PD, patients n (%) / HR OS (95% CI) / HR PFS (95% CI) / Disease Control Rate SD, patients n (%): evaluation cohort
Method: All patients underwent the treatment in salvage-line setting. […]
(§1) Genomic DNA was extracted from peripheral whole blood in patients of all cohorts using the QIAmp Kit (Qiagen, Valencia, Calif., USA) according to the manufacturer's protocol (www.qiagen.com). The candidate SNPs were genotyped using PCR-based direct DNA sequence analysis by ABI 3100A Capillary Genetic Analyzer and Sequencing Scanner v1.0 (Applied Biosystems). Amplification of extracted DNA was carried out using both forward and reverse primers for each gene polymorphism as shown in Table 1. […] The investigators analyzing SNPs were blinded to the clinical data of the study patients.
The primary endpoint in this study was progression-free survival (PFS), and the secondary endpoints were overall survival (OS) and disease control rate (DCR). PFS was calculated from the date of starting treatment to the first observation of disease progression or death from any cause. If a patient had no disease progression or death, PFS was censored at the date of last follow up. OS was calculated from the date of starting treatment until the date of death from any cause or the date of the last follow-up, at which point OS was censored. The disease control rate (DCR) was defined as the proportion of patients who achieved a stable disease (SD) or […] according to RECISTv1.1. Chi-square test was used to examine the difference in baseline patient characteristics among the three cohorts. Allelic distribution of all SNPs by ethnicity for deviation from Hardy-Weinberg equilibrium and the allelic frequencies of SNPs were tested using the Chi-square tests with one degree of freedom. The associations between candidate SNPs and disease control, and toxicities were examined using contingency tables and Fisher's exact test. The associations of SNPs with PFS and OS were analysed using Kaplan-Meier curves and the log-rank test. Because the true mode of inheritance of candidate SNPs was not established yet, a codominant or dominant genetic model if appropriate was considered.
All patients underwent the treatment in salvage-line setting. […] In all patients, adverse events were graded according to the Common Terminology Criteria for Adverse Events, version 4.0. […]
as §1, with “tested” for “genotyped”, “Biosystems).” for “Biosystems). Amplification of extracted DNA was carried out using both forward and reverse primers for each gene polymorphism as shown in Table 1.”, “data.” for “data of the study patients.”
The primary endpoint in this study was progression-free survival (PFS), and the secondary endpoints were overall survival (OS) and disease control rate (DCR).

[1] = PCNA rs25406 G/A vs G/G, univariate
[2] = Pin1 rs2233678 G/C vs G/G, multivariable
[3] = Pin1 rs2233678 G/C vs G/G, univariate
[4] = Pin1 rs2233679 Any T vs C/C, multivariable
[5] = Pin1 rs2233679 Any T vs C/C, univariate
[6] = Pin1 rs2233679 C/T vs C/C, multivariable
[7] = Pin1 rs2233679 C/T vs C/C, univariate
[8] = Pin1 rs2233679 T/T vs C/C, multivariable
[9] = Pin1 rs2233679 T/T vs C/C, univariate
[10] = RAD51 rs1801320 G/C vs G/G, multivariable
[11] = RAD51 rs1801320 G/C vs G/G, univariate
[12] = ATM rs609429 Any G vs C/C (Ref.), multivariable
[13] = ATM rs609429 Any G vs C/C (Ref.), univariate
[14] = ATM rs609429 G/C vs C/C (Ref.), multivariable
[15] = ATM rs609429 G/C vs C/C (Ref.), univariate
[16] = ATM rs609429 G/G vs C/C (Ref.), multivariable
[17] = ATM rs609429 G/G vs C/C (Ref.), univariate

Trifluridine/tipiracil [TAS-102]
OS HR (95% CI)† [1]: 0.62 (0.22, 1.71)
PFS HR (95% CI) † [1]: 0.68 (0.32, 1.41)
OS median, months (95% CI) (PCNA rs25406 G/G): 8.3 (2.7, 14.8+) months
PFS median, months (95% CI) (PCNA rs25406 G/G): 2.1 (1.6, 4.2) months
OS median, months (95% CI) (Pin1 rs2233678 G/C): 4.2 (2.7, 5.7+) months
PFS median, months (95% CI) (Pin1 rs2233678 G/C): 1.7 (1.6, 1.8+) months
OS HR (95% CI)‡ [2]: 7.21 (1.47, 35.33)
PFS HR (95% CI) ‡ [2]: 5.08 (1.11, 23.23)
OS HR (95% CI)† [3]: 4.23 (0.92, 19.42)
PFS HR (95% CI) † [3]: 3.66 (0.79, 16.99)
OS median, months (95% CI) (Pin1 rs2233678 G/G): 8.3 (6.3, 15.6+) months
PFS median, months (95% CI) (Pin1 rs2233678 G/G): 2.9 (2.1, 3.4) months
OS median, months (95% CI) (Pin1 rs2233679 Any T): 8.3 (6.3, 14.8+) months
PFS median, months (95% CI) (Pin1 rs2233679 Any T): 3.3 (1.8, 3.7) months
OS HR (95% CI)‡ [4]: 1.05 (0.43, 2.54)
PFS HR (95% CI) ‡ [4]: 1.01 (0.53, 1.94)
OS HR (95% CI)† [5]: 0.95 (0.40, 2.26)
PFS HR (95% CI) † [5]: 0.84 (0.45, 1.57)
OS median, months (95% CI) (Pin1 rs2233679 C/C): 7.2 (4.9, 15.6+) months
PFS median, months (95% CI) (Pin1 rs2233679 C/C): 2.3 (1.8, 3.4) months
OS median, months (95% CI) (Pin1 rs2233679 C/T): 8.3 (6.3, 12.4+) months
PFS median, months (95% CI) (Pin1 rs2233679 C/T): 2.9 (1.8, 3.7) months
OS HR (95% CI)‡ [6]: 1.04 (0.41, 2.64)
PFS HR (95% CI) ‡ [6]: 1.03 (0.52, 2.03)
OS HR (95% CI)† [7]: 1.05 (0.41, 2.65)
PFS HR (95% CI) † [7]: 0.90 (0.46, 1.75)
OS median, months (95% CI) (Pin1 rs2233679 T/T): 8.1 (3.1, 14.8+) months
PFS median, months (95% CI) (Pin1 rs2233679 T/T): 3.4 (1.6, 4.6) months
OS HR (95% CI)‡ [8]: 1.08 (0.24, 4.91)
PFS HR (95% CI) ‡ [8]: 0.95 (0.34, 2.67)
OS HR (95% CI)† [9]: 0.74 (0.20, 2.75)
PFS HR (95% CI) † [9]: 0.70 (0.28, 1.79)
OS median, months (95% CI) (RAD51 rs1801320 G/C): 6.3 (1.4, 8.4+) months
PFS median, months (95% CI) (RAD51 rs1801320 G/C): 3.2 (0.9, 3.4) months
OS HR (95% CI)‡ [10]: 2.28 (0.81, 6.48)
PFS HR (95% CI) ‡ [10]: 1.34 (0.60, 3.00)
OS HR (95% CI)† [11]: 2.19 (0.78, 6.14)
PFS HR (95% CI) † [11]: 1.57 (0.70, 3.50)
OS median, months (95% CI) (RAD51 rs1801320 G/G): 8.3 (5.7, 15.6+) months
PFS median, months (95% CI) (RAD51 rs1801320 G/G): 2.5 (2.0, 4.1) months
PFS (TAS-102 cohort n=52, combined hENT1 and OCT2/MATE1 variants: poor (11)): 47.0 days
PFS (combined hENT1 and OCT2/MATE1 analysis: overall (52)): 80 days
PFS (combined hENT1 and OCT2/MATE1 variants: excellent (21)): 104.0 days
PFS (combined hENT1 and OCT2/MATE1 variants: fair (16)): 62.0 days
PFS (combined hENT1 and OCT2/MATE1 variants: good (4)): 80 days
OS (median) (ATM rs609429 C/C (n=14)): 4.4 months
OS (median) (ATM rs609429 any G allele (G/C or G/G, n=38)): 8.7 months
PFS (median) (XRCC3 rs861539 G/A (n=17)): 3.8 months
PFS (median) (XRCC3 rs861539 G/G (n=35)): 2.3 months
Disease Control CR/PR/SD, patients n (%) (ATM rs609429 Any G): 10 (29%)
Median OS (95% CI) (ATM rs609429 Any G): 8.7 (6.3, 15.6+) months
Median PFS (95% CI) (ATM rs609429 Any G): 2.7 (2.1, 3.4) months
PD, patients n (%) (ATM rs609429 Any G): 25 (71%)
HR OS (95% CI) [12]: 0.24 (0.07, 0.80)
HR PFS (95% CI) [12]: 1.37 (0.57, 3.26)
HR OS (95% CI) [13]: 0.37 (0.14, 0.99)
HR PFS (95% CI) [13]: 1.53 (0.70, 3.35)
Disease Control CR/PR/SD, patients n (%) (ATM rs609429 C/C): 5 (45%)
Median OS (95% CI) (ATM rs609429 C/C): 4.4 (3.1, 8.3+) months
Median PFS (95% CI) (ATM rs609429 C/C): 3.3 (1.6, 6.0+) months
PD, patients n (%) (ATM rs609429 C/C): 6 (55%)
Disease Control CR/PR/SD, patients n (%) (ATM rs609429 G/C): 8 (32%)
Median OS (95% CI) (ATM rs609429 G/C): 12.4 (6.3, 15.6+) months
Median PFS (95% CI) (ATM rs609429 G/C): 2.9 (1.8, 3.4) months
PD, patients n (%) (ATM rs609429 G/C): 17 (68%)
HR OS (95% CI) [14]: 0.19 (0.05, 0.68)
HR PFS (95% CI) [14]: 1.30 (0.53, 3.19)
HR OS (95% CI) [15]: 0.32 (0.11, 0.91)
HR PFS (95% CI) [15]: 1.53 (0.68, 3.43)
Disease Control CR/PR/SD, patients n (%) (ATM rs609429 G/G): 2 (20%)
Median OS (95% CI) (ATM rs609429 G/G): 8.7 (1.2, 14.8+) months
Median PFS (95% CI) (ATM rs609429 G/G): 2.6 (1.2, 4.1) months
PD, patients n (%) (ATM rs609429 G/G): 8 (80%)
HR OS (95% CI) [16]: 0.39 (0.10, 1.54)
HR PFS (95% CI) [16]: 1.56 (0.56, 4.37)
HR OS (95% CI) [17]: 0.52 (0.16, 1.73)
HR PFS (95% CI) [17]: 1.55 (0.59, 4.04)
Disease Control Rate SD, patients n (%) (ATR rs2227928 A/A): 3 (20%)
PD, patients n (%) (ATR rs2227928 A/A): 12 (80%)
Disease Control Rate SD, patients n (%) (ATR rs2227928 A/G): 7 (32%)
PD, patients n (%) (ATR rs2227928 A/G): 15 (68%)
Disease Control Rate SD, patients n (%) (ATR rs2227928 Any G): 12 (39%)
PD, patients n (%) (ATR rs2227928 Any G): 19 (61%)
Disease Control Rate SD, patients n (%) (ATR rs2227928 G/G): 5 (56%)
PD, patients n (%) (ATR rs2227928 G/G): 4 (44%)
Disease Control Rate SD, patients n (%) (BRCA1 rs16941 Any C): 8 (30%)
PD, patients n (%) (BRCA1 rs16941 Any C): 19 (70%)
Disease Control Rate SD, patients n (%) (BRCA1 rs16941 C/C): 1 (20%)
PD, patients n (%) (BRCA1 rs16941 C/C): 4 (80%)
Disease Control Rate SD, patients n (%) (BRCA1 rs16941 T/C): 7 (32%)
